This passage reports IC50 and Kd results from article PMC10276812, “Cannabidiol inhibits Nav channels through two distinct binding sites” (Nature Communications, 2023).

Assay type in all cases: cell-based
The target of assay [1] is T1, Nav1.7 (Homo sapiens, UniProt Q15858, F387A).
T1 construct: gene SCN9A
The experiment in a line: whole-cell patch clamp in transfected HEK293T cells. (In general: Patch clamp records ionic current or voltage across a cell membrane.)

The target of assay [2] is T2, Nav1.7 (Homo sapiens, UniProt Q15858, S1320A).
T2 construct: gene SCN9A
T2 sequence (Q15858 whole entry S1320A): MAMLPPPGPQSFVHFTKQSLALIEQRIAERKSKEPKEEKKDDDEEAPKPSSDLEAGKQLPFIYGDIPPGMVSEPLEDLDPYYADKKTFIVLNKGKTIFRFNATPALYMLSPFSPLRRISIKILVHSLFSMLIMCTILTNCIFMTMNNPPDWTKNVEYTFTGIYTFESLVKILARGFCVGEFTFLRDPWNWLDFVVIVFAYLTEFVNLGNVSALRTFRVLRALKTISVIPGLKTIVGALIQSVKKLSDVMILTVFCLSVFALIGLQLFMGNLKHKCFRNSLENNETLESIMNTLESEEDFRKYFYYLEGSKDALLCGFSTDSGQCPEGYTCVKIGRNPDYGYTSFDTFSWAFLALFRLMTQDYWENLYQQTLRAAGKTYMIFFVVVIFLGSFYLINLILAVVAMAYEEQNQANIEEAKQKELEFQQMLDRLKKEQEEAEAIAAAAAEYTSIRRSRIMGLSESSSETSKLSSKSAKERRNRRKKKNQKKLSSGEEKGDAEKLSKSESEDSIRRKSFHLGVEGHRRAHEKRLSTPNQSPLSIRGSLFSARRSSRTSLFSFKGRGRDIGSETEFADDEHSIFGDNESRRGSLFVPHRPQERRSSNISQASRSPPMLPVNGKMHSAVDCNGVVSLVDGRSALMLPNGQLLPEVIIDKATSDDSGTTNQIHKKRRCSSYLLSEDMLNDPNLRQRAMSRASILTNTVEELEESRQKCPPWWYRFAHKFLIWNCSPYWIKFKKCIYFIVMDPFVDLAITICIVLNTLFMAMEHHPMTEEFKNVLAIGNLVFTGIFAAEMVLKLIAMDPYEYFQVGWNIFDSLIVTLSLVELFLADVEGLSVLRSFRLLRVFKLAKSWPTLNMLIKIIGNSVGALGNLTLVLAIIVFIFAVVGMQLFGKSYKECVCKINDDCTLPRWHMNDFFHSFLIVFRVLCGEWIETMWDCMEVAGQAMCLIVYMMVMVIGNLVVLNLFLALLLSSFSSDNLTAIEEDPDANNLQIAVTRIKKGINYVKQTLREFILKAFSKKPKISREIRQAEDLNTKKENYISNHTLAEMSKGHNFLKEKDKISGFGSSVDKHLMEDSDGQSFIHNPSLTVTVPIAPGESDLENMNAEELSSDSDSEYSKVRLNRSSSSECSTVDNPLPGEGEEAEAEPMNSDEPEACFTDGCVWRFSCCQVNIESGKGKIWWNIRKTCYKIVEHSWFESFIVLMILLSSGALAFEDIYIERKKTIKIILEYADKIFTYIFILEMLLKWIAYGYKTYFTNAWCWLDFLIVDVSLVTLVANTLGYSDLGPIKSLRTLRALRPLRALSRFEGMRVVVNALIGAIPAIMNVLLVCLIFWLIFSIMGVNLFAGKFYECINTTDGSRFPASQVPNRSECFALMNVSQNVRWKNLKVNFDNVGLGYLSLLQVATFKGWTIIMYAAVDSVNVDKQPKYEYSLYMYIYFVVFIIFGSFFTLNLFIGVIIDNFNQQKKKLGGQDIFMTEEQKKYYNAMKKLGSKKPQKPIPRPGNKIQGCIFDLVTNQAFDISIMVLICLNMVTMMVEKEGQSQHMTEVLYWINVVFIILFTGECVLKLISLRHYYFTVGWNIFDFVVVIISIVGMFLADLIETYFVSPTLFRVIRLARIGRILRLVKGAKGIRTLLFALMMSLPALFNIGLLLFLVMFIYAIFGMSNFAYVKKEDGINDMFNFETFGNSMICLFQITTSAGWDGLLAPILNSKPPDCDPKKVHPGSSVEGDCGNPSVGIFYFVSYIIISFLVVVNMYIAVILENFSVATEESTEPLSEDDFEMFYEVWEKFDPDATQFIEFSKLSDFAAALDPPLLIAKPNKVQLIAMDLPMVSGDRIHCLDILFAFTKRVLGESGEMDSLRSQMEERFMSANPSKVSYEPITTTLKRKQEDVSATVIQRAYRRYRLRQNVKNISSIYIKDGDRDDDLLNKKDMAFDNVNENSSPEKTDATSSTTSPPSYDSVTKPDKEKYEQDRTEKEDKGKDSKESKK
The assay is described as above.

Assay [3] addresses T3, Nav1.7 (Homo sapiens, UniProt Q15858, N1459A).
T3 construct: gene SCN9A
The description is as above.

In assay [4] the target is T4, Nav1.7 (Homo sapiens, UniProt Q15858).
T4 construct: gene SCN9A; no beta subunit stated for this line
T4 sequence (Q15858 whole entry): as the sequence (Q15858 whole entry S1320A) above, with A1320S counted along it
The assay can be described thus: cryo-EM structure at […] Å; Kd for the inactivated state calculated from patch-clamp (alpha subunit alone).

Assay [5] deals with T5, Nav1.7 (Homo sapiens, UniProt Q15858, V383A).
T5 construct: gene SCN9A
T5 sequence (Q15858 whole entry V383A): as the sequence (Q15858 whole entry S1320A) above, with V383A, A1320S counted along it
The experiment in a line: whole-cell patch clamp in transfected HEK293T cells.

Assay [6] deals with T6, Nav1.7 (Homo sapiens, UniProt Q15858, N1459A/S1320A).
T6 construct: gene SCN9A
T6 sequence (Q15858 whole entry S1320A/N1459A): as the sequence (Q15858 whole entry S1320A) above, with N1459A counted along it
The description is as above.

T3 sequence (Q15858 whole entry N1459A): as the sequence (Q15858 whole entry S1320A) above, with A1320S, N1459A counted along it
T1 sequence (Q15858 whole entry F387A): as the sequence (Q15858 whole entry S1320A) above, with F387A, A1320S counted along it

Turning to `C=C(C)[C@@H]1CCC(C)=C[C@H]1c1c(O)cc(CCCCC)cc1O` [CBD, Cannabidiol], the IC50 (as a rule, the concentration at which inhibition is half-maximal) against Nav1.7 [1] was 3.65 ± 0.78 µM; against Nav1.7 [2], 3.81 ± 0.42 µM; against Nav1.7 [3], 2.46 ± 0.28 µM; at Nav1.7 [5] it was 3.56 ± 0.58 µM; against Nav1.7 [6], 4.28 ± 0.67 µM. Moreover, the Kd (as a rule, the equilibrium constant for the complex coming apart) at Nav1.7 [4] was roughly 0.05 µM.
